Assay results: US20220380371A1, “MLL1 INHIBITORS AND ANTI-CANCER AGENTS” (NOVARTIS AG, priority 2019, published 2022)
Like-named read-outs stand apart in the source and are kept apart here.

Columns and labels:
H3K4me3 in MV4-11 cells = experiment: MV4-11 H3K4me3 Cellular ELISA Assay; assay type: cell-based; details: Homo sapiens, MV4-11, 48 h
Summary of the method: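 MV4-11 cells were treated for 48 h with 12-point 1:3 compound dilutions (from 10 mM stock), then histones were acid-extracted with 0.5M HCl and neutralized. H3K4me3 and total H3 were measured by HRP chemiluminescent ELISA, and inhibition versus DMSO after H3 normalization was curve-fitted for IC50.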

[1] = molecular target: wild type MLL1 four-member complex (MLL1-4C) (Homo sapiens, UniProt Q03164); experiment: MLL1 LC-MS Assay; assay type: biochemical
Summary of the method: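 Compound pre-incubated 20 min with MLL1-4C and SAM, then H3[1-21]-biotin (H3K4me0) substrate added; final 30 nM enzyme, 2.5 μM SAM, 10 μM peptide in Tris pH 8.0 with MgCl2, DTT, Tween 20, BSA. After 120 min at rt, TFA-quenched SAH quantified by LC-MS/MS with d4-SAH; IC50 from dose-response fit.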

[2] = molecular target: wild type MLL1 five-member complex (MLL1-5C) (Homo sapiens, UniProt Q03164); experiment: MLL1 Flashplate Assay; assay type: biochemical; details: read-out: MLL1 flash plate
Method: MLL1 Flashplate Assay To assess the compound potency in MLL1 Flashplate assay, compounds were serially diluted 3-fold in DMSO to obtain a total of twelve concentrations. Then the test compounds at each concentration (250 nL of each) were transferred by Mosquito into Corning #3675 384-well plate. Solutions (15 μL) of 4.2 nM wild type MLL1 five-member complex (MLL1-5C) in the assay buffer (20 mM Tris-HCl, pH 8.0, 0.01% Tween 20, 1 mM DTT, 0.01% BSA) were added to the wells. A 10 μL solution of 2.5 μM of the peptide substrate H3K4me0 (histone H3[1-21]-Biotin) and 1.25 μM ^3H-SAM in the reaction buffer was then added to initiate each reaction. The final components in the reaction solution include 2.5 nM MLL1-5C, 0.5 μM ^3H-SAM, and 1 μM H3K4me0 with varying concentration of the compounds. A positive control consisted of 2.5 nM MLL1-5C, 0.5 μM ^3H-SAM, and 1 μM substrate in the absence of the test compound, and a negative control consisted of 0.5 μM ^3H-SAM, and 1 μM substrate only. Each reaction was incubated at rt for 90 min, then stopped by addition of 5 μL per of quench solution (0.5 mM SAM in assay buffer). 25 μL of each reaction solution was transferred to FlashPlate streptavidin 384-well microplate (PerkinElmer). After at least 1 h incubation at rt, the wells were washed three times with 0.1% Tween-20 in dH2O using the BioTek plate washer. The plates were then read in MicroBeta (PerkinElmer). The radioactive readouts were then normalized based on the values coming from the positive and negative controls to give percent enzyme activities. The data were then fit to a dose response equation using the program Helios to get the IC50 values of the test compounds.

MV4-11 cells = experiment: MV4-11 6-Day Cell Growth CTG (CellTiter-Glo) Assay; assay type: cell-based; details: Homo sapiens, MV4-11, 144 h, MV4-11 cell growth CellTiter-Glo, 6 days
Summary of the method: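 MV4-11 AML cells (RPMI 1640, 10% FBS) seeded at 300 cells/well and exposed for 6 days at 37 °C to a 12-point, 1:3 compound series starting at 50 μM final. Viable cells read by CellTiter-Glo luminescence; percent inhibition versus DMSO-only wells fitted to dose-response curves for IC50.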

| SMILES | IC50 (H3K4me3 in MV4-11 cells) | IC50 ([1]; read-out: LCMS) | IC50 [2] | IC50 (MV4-11 cells) | IC50 ([1]; read-out: MLL1 LCMS) |
| --- | --- | --- | --- | --- | --- |
| C[C@@H]1CN(C(=O)[C@@]2(N)CCN(c3ccc(F)c(C(F)(F)F)c3Cn3cnc4c(N)ncnc43)C2)CCO1 [Example 135] | < 1900 nM | 50 to 100 nM | < 60 nM | < 2000 nM |  |
| N#CCN1CCN(C(=O)[C@@]2(N)CCN(c3ccc(F)c(C(F)(F)F)c3Cn3cnc4c(N)ncnc43)C2)CC1 [Example 136] | < 1900 nM | 50 to 100 nM | < 60 nM | < 2000 nM |  |
| Nc1ncnc2c1ncn2Cc1c(N2CC[C@](N)(C(=O)N3CCC[C@@H](O)C3)C2)ccc(F)c1C(F)(F)F [Example 138] | < 1900 nM | 50 to 100 nM | < 60 nM | < 2000 nM |  |
| CCn1ncnc1CNC(=O)[C@@]1(N)CCN(c2ccc(F)c(C(F)(F)F)c2Cn2cnc3c(N)ncnc32)C1 [Example 140] | < 1900 nM | > 100 nM | 60 to 100 nM | < 2000 nM |  |
| N#CC1CCN(C(=O)[C@@]2(N)CCN(c3ccc(F)c(C(F)(F)F)c3Cn3cnc4c(N)ncnc43)C2)C1 (some centres unmarked) [Example 141] | < 1900 nM |  | < 60 nM | < 2000 nM | < 50 nM |
| Nc1ncnc2c1ncn2Cc1c(Br)ccc(Cl)c1N1CC[C@@](N)(C(=O)O)C1 [Example 142] | < 1900 nM |  | < 60 nM | > 3000 nM | < 50 nM |
| Nc1ncnc2c1ncn2Cc1c(Br)c(Cl)cc(Cl)c1N1CC[C@](N)(C(=O)NC2CC2)C1 [Example 143] | < 1900 nM |  | < 60 nM | < 2000 nM | < 50 nM |
| Nc1ncnc2c1ncn2Cc1c(N2CC[C@](N)(C(=O)NC3CC3)C2)ccc(Cl)c1Cl [Example 144] | < 1900 nM |  | < 60 nM | < 2000 nM | < 50 nM |
| CCc1c(Cl)ccc(N2CC[C@](N)(C(=O)NCCS(=O)(=O)c3ccccc3)C2)c1Cn1cnc2c(N)ncnc21 [Example 145] | < 1900 nM |  | < 60 nM | < 2000 nM | < 50 nM |
| Nc1ncnc2c1ncn2Cc1c(N2CC[C@](N)(C(=O)NC3CC3)C2)ccc(Br)c1C(F)(F)F [Example 146] | < 1900 nM |  | < 60 nM | < 2000 nM | < 50 nM |
| Nc1ncnc2c1ncn2Cc1c(N2CC[C@](N)(C(=O)NC3CC3)C2)ccc(OC(F)(F)F)c1Br [Example 147] | < 1900 nM |  | < 60 nM | < 2000 nM | < 50 nM |
| NC(=O)[C@@]1(N)CCN(c2cc(Cl)cc(Br)c2Cn2cnc3c(N)ncnc32)C1 [Example 148] | < 1900 nM |  | < 60 nM | < 2000 nM | < 50 nM |
| CCc1c(Cl)ccc(N2CC[C@](N)(C(=O)NCCS(=O)(=O)CC)C2)c1Cn1cnc2c(N)ncnc21 [Example 149] | < 1900 nM |  | < 60 nM | < 2000 nM | < 50 nM |
| Nc1ncnc2c1ncn2Cc1c(-c2cccc3c2CCCC3)cc(Cl)cc1N1CC[C@](N)(C(=O)NC2CC2)C1 [Example 150] | 1900 to 3000 nM |  | < 60 nM | < 2000 nM | < 50 nM |
| CCc1cc(Cl)cc(N2CC[C@](N)(C(=O)N3CCS(=O)(=O)CC3)C2)c1Cn1cnc2c(N)ncnc21 [Example 151] | < 1900 nM |  | < 60 nM | < 2000 nM | > 100 nM |
| Nc1ncnc2c1ncn2Cc1c(Cl)c(Cl)cc(F)c1N1CCC(N)(C(=O)NC2CC2)C1 (centres unmarked) [Example 152] | < 1900 nM |  | < 60 nM | < 2000 nM | > 100 nM |
| CCc1c(Cl)ccc(N2CC[C@](N)(C(=O)NC3CCS(=O)(=O)CC3)C2)c1Cn1cnc2c(N)ncnc21 [Example 153] | < 1900 nM |  | 60 to 100 nM | < 2000 nM | < 50 nM |
| CCc1ccc(Cl)c(N2CC[C@](N)(C(=O)NC3CC3)C2)c1Cn1cnc2c(N)ncnc21 [Example 154] | < 1900 nM |  | > 100 nM | < 2000 nM | < 50 nM |
| CCc1c(Cl)ccc(N2CC[C@](N)(C(=O)N3CCS(=O)(=O)CC3)C2)c1Cn1cnc2c(N)ncnc21 [Example 155] | < 1900 nM |  | > 100 nM | < 2000 nM | > 100 nM |
| CCOC(=O)[C@@]1(N)CCN(c2cc(Cl)cc(Br)c2Cn2cnc3c(N)ncnc32)C1 [Example 170] | < 1900 nM |  | < 60 nM | < 2000 nM | 50 to 100 nM |
